{"source": "patent US20120005765A1", "about": "“ANIMAL MODEL FOR PARKINSON'S DISEASE” (Saint Louis University, priority 2010, published 2012)", "key": {"α-synuclein [1]": {"biological_target": "α-synuclein (Homo sapiens, UniProt P37840)", "experiment": "DOPAL-triggered α-synuclein aggregation in test tube, Western blot", "assay_type": "biochemical", "details": "AS 2 μM, 37° C., up to 4 h, DOPAL 1.5-1,500 μM", "method": "Determination of DOPAL-triggered α-synuclein aggregation in vitro. Western blot of DOPAL-triggered AS aggregation in test tube experiments. DOPAL was dissolved in 1% benzyl alcohol, then diluted to a final concentration of 1.5-1,500 μM as described previously. AS (2 μM) was incubated at 37° C. in 20 μl of 100 mM tris-HCl buffer (pH 7.2) with or without DA, DOPAL, DOPAC, or homovanillic acid (HVA) for up to 4 h. The reaction was stopped by heating at 70° C. for 3 min in SDS buffer. The entire mixture was transferred to the appropriate gel (vide infra).\nSDS-PAGE and immunoblotting. Ten micrograms of protein (estimated by Bio Rad protein reagent) was resolved by electrophoresis on 4-12% bis-tris gels run with MES SDS buffer, and 3-8% tris-acetate gels using tris-acetate running buffer. For immunoblotting, the protein was transferred to PVDF blotting membranes with […] pore size, blocked with 5% milk protein in tris buffered saline (TBS) containing 0.1% Tween 20, and incubated for 1 h with a AS 202 monoclonal antibody (1:2,500 dilution). Blots were washed five times with 5% milk protein in TBS and probed with horseradish peroxidase-conjugated anti-mouse secondary antibody (1:2,500). Blots were washed five times with TBS containing. 0.5% Tween 20 before detection with Super Signal (Pierce).\nWestern blot analysis was performed to analyze DOPAL-induced aggregation of α-synuclein (FIG. 1). […]"}, "Substantia Nigra Neurons": {"test_system": "Substantia Nigra Neurons", "experiment": "Unbiased stereology of substantia nigra neurons after DOPAL injection", "assay_type": "in vivo", "design": "TOTAL SNpc Neurons / TOTAL SNr Neurons / TH SNpc Neurons: dose or concentration left out as unconfirmed", "description": "Neuropathological Evaluation: Stereology The SN was included in 8-10 sections of all cases counted, and its total length was approximately 1.25 mm. Mean volume of the SNpc of control rats was […], while that of the SNpr was 777,696,500 m^3. Mean volume of the SNpc in the DOPAL injected rats was 264,674,833 m^3 while that of the SNpr was 760,212,500 m^3. There was no significant difference in mean volumes of SNpc or SNpr between controls and DOPAL injected rats. The inventors first counted TH immunoreactive neurons in the SNpc on the side of the DOPAL injection and compared them to those on the non-injected side. […] However, the inventors noted that numerous SNpc neurons sometimes were not stained for TH despite robust labeling of others (FIG. 3F). Thus, the inventors compared the number of Nissl stained profiles in sections immunostained with a-syn rather than TH in the SNpc's ipsilateral to the DOPAL injections to those of control rats which had received injections of a buffered saline solution into their SN's (Table 3). […] The inventors then determined whether DOPAL was toxic to neurons in the subjacent pars reticulata of the SN. The number of neurons in the SNpr of the DOPAL-injected rats was not different from the saline-injected rats (Table 3; FIG. 4C).\nThe effect of DOPAL injections into the substantia nigra on neurons in either the pars compacta (SNpc) or the pars reticularis (SNpr) are shown. Control animals were injected with buffered saline while experimental animals were injected with DOPAL (4 mg/800 nl). Unbiased stereology was used to assess the number of neurons (see Methods). Means (SD); n.s.=not significant."}, "α-synuclein [2]": {"biological_target": "T1, α-synuclein (Rattus norvegicus, UniProt P37377)", "T1 construct": "from tissue; host or cells: substantia nigra of Sprague-Dawley rats", "experiment": "DOPAL-triggered α-synuclein aggregation in vivo, intranigral injection, Western blot", "details": "rat SN injected with 1 μg or 0.2 μg DOPAL, 1 and 4 hours", "description": "Western blot of DOPAL-triggered AS aggregation in vivo Intranigral DOPAL injections and tissue preparation for Western blot. The housing and nutrition of the rats used in this study and all procedures performed on them conformed to standards set forth in the Guide for the Care and Use of Laboratory Animals of the National Research Council (National Academy Press, 1996). The experimental protocols reported herein were reviewed and approved by the Animal Care Committee of the Saint Louis University.\nThe details of the surgical and immunohistochemical methods have been previously described (Burke et al., Brain Res 989:205-213, 2003). Briefly, 2-month-old Sprague-Dawley rats (300 g; Harlan, Indianapolis, Ind., USA) were deeply anesthetized with 4% induction and maintained with 1% isoflurane. The heads of the rats were fixed in a stereotaxic apparatus (David Kopf, Tujunga, CA, USA). […]\nRats for Western blot analysis were killed after 4 h by injecting pentobarbital (100 mg/kg, IP). […] The black microspheres were identified in the pellets and supernatants were analyzed with Western blot as described above using AS 202 and J3-actin antibodies. For the 4-h 1.0-μg DOPAL and control SN injections, the density of the bands on the blot was determined using the UnScan it program (Silk Scientific, Orem, Utah, USA). The results were expressed as units of AS aggregate/unit of actin. […]"}}, "note": "Entries after “also recorded” stand apart in the source; their conditions may differ."}
{"molecule": "O=CCc1ccc(O)c(O)c1", "note": "[DOPAL, 3,4-dihydroxyphenylacetaldehyde]", "values": [{"measurement": "aggregation of α-synuclein oligomers in vitro", "setting": "α-synuclein [1]", "value": "triggers dose-dependent aggregation"}, {"measurement": "TOTAL SNpc Neurons", "setting": "Substantia Nigra Neurons; DOPAL into substantia nigra, Means (SD), control 11926 (1084)", "value": "6879 (422)"}, {"measurement": "TH SNpc Neurons", "setting": "Substantia Nigra Neurons; DOPAL into substantia nigra, Means (SD), control 11969 (3699)", "value": "5884 (1365)"}, {"measurement": "TOTAL SNr Neurons", "setting": "Substantia Nigra Neurons; DOPAL into substantia nigra, Means (SD), control 12422 (832)", "value": "11761 (715)"}, {"measurement": "number of Nissl-stained neurons in the SNpc, less than saline-injected rats", "setting": "Substantia Nigra Neurons; p=0.001", "value": 43, "unit": "%"}, {"measurement": "mean number of TH immunoreactive SNpc neurons ipsilateral, less than contralateral non-injected side", "setting": "Substantia Nigra Neurons; p=0.032", "value": 50, "unit": "%"}, {"measurement": "number of neurons in the SNpr vs saline-injected rats", "setting": "Substantia Nigra Neurons; rat, in vivo", "value": "not different"}, {"measurement": "aggregation of α-synuclein in vivo", "setting": "α-synuclein [2]", "value": "triggers a selective dose and time dependent aggregation; also recorded: even small amounts of DOPAL still aggregate α-synuclein"}]}
